Experimental data reported in BindingDB's records for doi:10.1016/s0960-894x(02)00934-4 (Southern Research Institute, 2003).

Experiment: Antagonist activity on agonist stimulated [35S]GTP-gamma-S, binding in guinea pig caudate membranes (10 uM SNC-80 as the agonist ligand for delta-receptor)

Row | SMILES | Ki
1 | NC(N)=Nc1cnc2c(c1)C[C@@]1(O)[C@H]3Cc4ccc(O)c5c4[C@@]1(CCN3CC1CC1)[C@H]2O5 [6-amino(imino)methylamino-19-cyclopropylmethyl-11-oxa-8,19-diazahexacyclo[10.9.1.01,10.02,18.04,9.016,22]docosa-4(9),5,7,12,14,16(22)-hexaene-2,13-diol; ditrifluoracetic acid] | 6.5 nM
2 | Oc1ccc2c3c1O[C@H]1c4ncc(-n5cccc5)cc4C[C@@]4(O)[C@@H](C2)N(CC2CC2)CC[C@]314 [19-cyclopropylmethyl-6-(1H-1-pyrrolyl)-11-oxa-8,19-diazahexacyclo[10.9.1.01,10.02,18.04,9.016,22]docosa-4(9),5,7,12,14,16(22)-hexaene-2,13-diol] | 0.4 nM
